Here are results for six molecules from US11274129B2, “Methods for protein tyrosine phosphorylation profiling with variant SH2 domains” (priority 2016, dated 2022).

Where a chain is given by its changes, count along the chain named.

One experiment has as its system MDA-MB-231 cells. Put plainly: Cell growth inhibition assay (CellTiter 96 AQueous One Solution Cell Proliferation Assay). Particulars: single inhibitor at different concentrations (FIG. 11A). The format is cell-based, human. Here is the method:
(§1) Cell growth inhibition assays were performed with the CellTiter 96 AQueous One Solution Cell Proliferation Assay (Promega) according to the manufacturer's recommendations.

For another experiment, the system named is BT-474 cells. Described as above. As to conditions: single inhibitor at different concentrations (FIG. 11A). It is filed as cell-based, human. How it is done:
as §1

A further experiment has as its system SK-BR-3 cells. The description is as above. The format is cell-based, human. As to conditions: single inhibitor at different concentrations (FIG. 11A). How it is done: as §1
A further experiment relates to MCF-7 cells. Described as above. It is filed as cell-based, human. As to conditions: single inhibitor at different concentrations (FIG. 11A). Here is the method: as §1
Experiment [1] deals with pTyr-including peptide found in the sequence of the receptor tyrosine kinase EGFR. Put plainly: Binding of wild-type and TrM Fyn SH2 domain to EGFR pTyr peptide. The text has this:
The relative affinity of a variant SH2 domain, including a SH2 Superbinder, can be readily assessed compared to the affinity of the relevant parent SH2 domain, using binding assays known in the art, including as described in Kaneko, T. et al., “SH2 Superbinders act as antagonists of cell signaling”, (2012) Sci. Signal. 5: ra68; and U.S. patent application Ser. No. 14/388,592.

In experiment [2] the target is pTyr-including peptide found in the sequence of the receptor tyrosine kinase EGFR (Homo sapiens, UniProt P06241, K204L/S186A/T181V). Particulars: read-out: equilibrium dissociation constant (Kd); cited from earlier work.
For experiment [3], the target named is pTyr-including peptide found in the sequence of the receptor tyrosine kinase EGFR (Homo sapiens, UniProt P06241). As to conditions: cited from earlier work.
Experiment [4] relates to pTyr-including peptides from pervanadate-treated Jurkat cells. Put plainly: Enrichment of pTyr-including peptides from pervanadate-treated Jurkat cells by affinity reagents, 1D LC-MS/MS. More on the design: species or system human. As to conditions: 3 mg Jurkat peptides. Here is the method:
Experiments were conducted to determine the relative efficacy of the variant Src SH2 domains and commonly used anti-pTyr antibodies as affinity reagents for pTyr-including peptides from biological samples. His6/GST-tagged TrM Src SH2 domain (SEQ ID NO: 11) and His6-tagged QuadM Src SH2 domain (SEQ ID NO: 13), as well as anti-pTyr antibodies, were prepared in functionally-equivalent molar amounts by using half the molar amount of the antibodies relative to the SH2 domain variants given that each antibody molecule has two binding sites for its antigen.
The first experiment tested the relative ability of the following affinity reagents to extract pTyr-including peptides from a peptide mixture prepared from Jurkat cells: a His6/GST-tagged TrM Src SH2 (SEQ ID NO: 11), a His6-tagged QuadM Src SH2 (SEQ ID NO: 13), the anti-pTyr antibody 4G10 (agarose conjugate, obtained from Millipore), and a mixture of commercially-available anti-pTyr antibodies. […] The two SH2 affinity reagents were also tested at a 30× amount; the antibodies were not tested at a 30× amount due to the prohibitive cost of doing so. The purified SH2 affinity reagents were prepared as described in Example 1. The antibody mixture contained 4G10 (as above), PY99 (obtained from Santa Cruz Biotechnology), and P-Tyr-100 (slurry of PTMScan® Phospho-Tyrosine Mouse mAb, obtained from Cell Signaling Technology). Since the concentration of P-Tyr-100 is unknown, the amount was used as recommended by the vendor (i.e., 4 μL for 1 mg peptide digest).
FIG. 2A presents a schematic of the experimental design. Each amount of His6-tagged SH2 domain variant or antibody was subjected to a binding experiment with 3 mg of a peptide mixture prepared from pervanadate-treated Jurkat cells.
Jurkat cells (obtained from ATCC) were cultured in a humidified atmosphere of 5% CO2 at 37° C. in Roswell Park Memorial Institute 1640 medium (RPMI-1640) supplemented with 10% bovine serum and 100 U/mL of streptomycin and penicillin.
The cells were again collected by centrifugation. The cell pellets were gently homogenized in an ice-cold lysis buffer containing 8 M urea, 50 mM tris(hydroxymethyl)aminomethane (Tris)-HCl (pH 7.4), 2% protease inhibitor cocktail (v/v, obtained from Sigma-Aldrich), 1% Triton X-100 (v/v), 1 mM NaF, and 1 mM Na3VO4, followed by sonication at 400 W for 120 s. After centrifugation at 25,000 g for 1 h, proteins were precipitated in ice-cold acetone/ethanol/acetic acid (50/50/0.1, V/V/V) solution. Subsequently, the proteins were diluted in reducing buffer containing 100 mM triethylammonium bicarbonate (TEAB) buffer (pH 8.2) and 8 M urea, and the final protein concentration was determined by Bradford assay. The protein suspension was reduced in 10 mM dithiothreitol (DTT) at 37° C. for 2 h, and it was then alkylated in 20 mM iodoacetamide (IAA) in darkness at room temperature for another 30 min. Trypsin digestion was performed at 37° C. overnight with an enzyme-to-protein ratio of 1/25 (w/w). The resulting peptide mixture was stored at −80° C. for further analysis.
Desalted Jurkat peptides (30 mg) were dissolved in ice-cold immunoaffinity purification (IAP) buffer and then split into 10 aliquots with 3 mg of Jurkat peptides each. Binding experiments were performed with the amounts of antibody (1×, 5×) or SH2 domain variant (1×, 5×, 30×) set out in Table 1 and FIG. 2A.
For antibody-based enrichment, 4G10 or the antibody mixture was incubated with the sample at 4° C. overnight while rotating. The beads were washed three times with ice-cold IAP buffer and twice with ice-cold water. To release the bound peptides, the beads were eluted twice with 200 μL 0.15% trifluoroacetic acid (TFA) for 15 min at room temperature.
For SH2-based enrichment, Ni-NTA beads containing the purified SH2 proteins were washed extensively in twenty column volumes of PBS buffer (pH 7.0) containing 20 mM imidazole. […] The washed beads were incubated with the peptide mixture at 4° C. overnight while rotating. […]

For `CCN1CCN(Cc2ccc(C(=O)Nc3ccc(C)c(Oc4ccc5c(c4)CC(=O)N5)c3)cc2C(F)(F)F)CC1` [DDR1-IN-1], the “proliferation relative to no drug exposure” value in the experiment on MDA-MB-231 cells, in the experiment on BT-474 cells and in the experiment on SK-BR-3 cells was “neither inhibitor had an effect” each time.
For `CNC(=O)c1c(F)cccc1Nc1nc(Nc2cc3c(cc2OC)CCN3C(=O)CN(C)C)nc2[nH]ccc12` [GSK1838705], the “proliferation relative to no drug exposure” value is on record as “neither inhibitor had an effect” in the experiment with MDA-MB-231 cells, “inhibited the proliferation of MCF-7 in a dose-dependent manner” in the experiment with MCF-7 cells, “neither inhibitor had an effect” in the experiment with BT-474 cells and “neither inhibitor had an effect” with SK-BR-3 cells.
Consider `CS(=O)(=O)CCNCc1ccc(-c2ccc3ncnc(Nc4ccc(OCc5cccc(F)c5)c(Cl)c4)c3c2)o1` [lapatinib], for which the “proliferation relative to no drug exposure” value is reported as “insensitive” with MDA-MB-231 cells, “insensitive” in the experiment with MCF-7 cells, “sensitive” in the experiment with BT-474 cells and “sensitive” in the experiment on SK-BR-3 cells.

B1: TrM Fyn SH2 domain: variant human Fyn SH2 domain with Thr181Val, Ser186Ala and Lys204Leu (protein)
chain: APVDSIQAEEWYFGKLGRKDAERQLLSFGNPRGTFLIRESETVKGAYALSIRDWDDMKGDHVKHYLIRKLDNGGYYITTRAQFETLQQLVQHYSERAAGLCCRLVVPCHKG
modifications: SH2 protein domain; TrM human Fyn SH2 domain
notes: variant human Fyn SH2 domain with Thr181Val, Ser186Ala and Lys204Leu
As to B1, the “fold tighter binding than wild-type Fyn SH2 domain” value in experiment [1] was “around 380 fold”. Moreover, the Kd (commonly the concentration at which binding is half-saturated) in experiment [2] was 0.0097 µM.

B2: wild-type Fyn SH2 domain: wild-type human Fyn SH2 domain (protein)
chain: B1 chain with V43T, A48S, L66K
modifications: SH2 protein domain; Wild-type human Fyn SH2 domain
On to B2, for which the Kd in experiment [3] is 3.7 µM.

B3: QuadM Src SH2: TrM human Src SH2 domain variant with additional mutation Thr218Trp in its specificity-binding pocket; His6-tagged form SEQ ID NO: 13 (protein)
chain: DSIQAEEWYFGKITRRESERLLLNAENPRGTFLVRESETVKGAYALSVSDFDNAKGLNVKHYLIRKLDSGGFYIWSRTQFNSLQQLVAYYSKHADGLCHRLTTVCPTSK
modifications: SH2 protein domain; QuadM human Src SH2 domain
Consider B3, for which the “Number of pTyr sites identified” value in experiment [4] (0.375 nmol (1x) pTyr-binding sites) was determined as 679; in experiment [4] (1.875 nmol (5x) pTyr-binding sites) it was 938; in experiment [4] (11.25 nmol (30x) pTyr-binding sites), 1186.
